For four molecules, IC50 results are on record in patent US11034672B1, “Tyrosine kinase inhibitor compositions, methods of making and methods of use” (Black Diamond Therapeutics, Inc., priority 2018, dated 2021).

Some results are limits rather than exact numbers.

Common to all, as to assay type: cell-based
In assay [1] the target is T1, EGFR WT (Homo sapiens, UniProt P00533). Description: Activity for inhibiting EGFR (Table A), EGFR WT. The note with it: read-out: EGFR WT, potency code (IC50).
For assay [2], the target named is T2, HER2 WT (Homo sapiens, UniProt P04626). Description: BaF3 cell proliferation assay, HER2 WT (Table B). The note with it: potency code, 3 days, CellTiterGlo, read-out: HER2 WT (Activity for Inhibiting HER2). For orientation: In ATP-based viability assays light output follows the ATP content of the culture.
T2 sequence (P04626 23-1255): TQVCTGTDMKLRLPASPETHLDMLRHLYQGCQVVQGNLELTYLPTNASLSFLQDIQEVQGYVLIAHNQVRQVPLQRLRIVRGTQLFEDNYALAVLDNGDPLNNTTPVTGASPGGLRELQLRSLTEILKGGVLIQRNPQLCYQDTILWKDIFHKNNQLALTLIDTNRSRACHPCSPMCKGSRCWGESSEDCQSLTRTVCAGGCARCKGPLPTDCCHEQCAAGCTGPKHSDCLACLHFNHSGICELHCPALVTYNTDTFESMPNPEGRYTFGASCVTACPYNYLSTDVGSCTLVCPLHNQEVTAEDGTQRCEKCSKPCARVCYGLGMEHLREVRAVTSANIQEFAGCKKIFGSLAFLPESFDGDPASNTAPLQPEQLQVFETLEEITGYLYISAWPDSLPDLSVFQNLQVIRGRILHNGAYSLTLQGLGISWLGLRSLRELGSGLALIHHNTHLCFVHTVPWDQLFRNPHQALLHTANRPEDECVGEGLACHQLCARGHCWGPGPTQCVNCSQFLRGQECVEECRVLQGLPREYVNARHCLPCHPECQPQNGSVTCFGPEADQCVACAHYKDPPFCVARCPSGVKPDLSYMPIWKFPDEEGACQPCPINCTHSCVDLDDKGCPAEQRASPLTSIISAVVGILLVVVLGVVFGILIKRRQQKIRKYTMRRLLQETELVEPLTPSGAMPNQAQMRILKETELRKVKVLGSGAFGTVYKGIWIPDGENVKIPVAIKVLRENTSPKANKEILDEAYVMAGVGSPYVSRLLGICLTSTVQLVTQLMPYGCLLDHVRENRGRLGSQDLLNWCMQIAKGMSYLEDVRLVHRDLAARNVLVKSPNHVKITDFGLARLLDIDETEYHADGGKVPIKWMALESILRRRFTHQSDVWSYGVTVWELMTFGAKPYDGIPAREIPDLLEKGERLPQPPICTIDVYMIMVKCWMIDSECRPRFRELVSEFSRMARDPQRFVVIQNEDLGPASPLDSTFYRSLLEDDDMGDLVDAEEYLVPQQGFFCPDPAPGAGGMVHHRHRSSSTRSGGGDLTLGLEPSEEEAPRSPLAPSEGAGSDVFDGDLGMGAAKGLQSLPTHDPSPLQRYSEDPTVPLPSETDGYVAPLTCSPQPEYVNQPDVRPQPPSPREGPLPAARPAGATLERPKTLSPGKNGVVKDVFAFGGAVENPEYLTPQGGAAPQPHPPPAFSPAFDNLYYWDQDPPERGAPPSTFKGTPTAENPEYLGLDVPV
The target in assay [3] is T3, HER2 YVMA (Homo sapiens, UniProt P04626, INS775YVMA).
T3 construct: expressed in transfected cells; host or cells: BaF3 (murine pro-B)
T3 sequence (P04626 with tags, fused parts or gaps INS775YVMA): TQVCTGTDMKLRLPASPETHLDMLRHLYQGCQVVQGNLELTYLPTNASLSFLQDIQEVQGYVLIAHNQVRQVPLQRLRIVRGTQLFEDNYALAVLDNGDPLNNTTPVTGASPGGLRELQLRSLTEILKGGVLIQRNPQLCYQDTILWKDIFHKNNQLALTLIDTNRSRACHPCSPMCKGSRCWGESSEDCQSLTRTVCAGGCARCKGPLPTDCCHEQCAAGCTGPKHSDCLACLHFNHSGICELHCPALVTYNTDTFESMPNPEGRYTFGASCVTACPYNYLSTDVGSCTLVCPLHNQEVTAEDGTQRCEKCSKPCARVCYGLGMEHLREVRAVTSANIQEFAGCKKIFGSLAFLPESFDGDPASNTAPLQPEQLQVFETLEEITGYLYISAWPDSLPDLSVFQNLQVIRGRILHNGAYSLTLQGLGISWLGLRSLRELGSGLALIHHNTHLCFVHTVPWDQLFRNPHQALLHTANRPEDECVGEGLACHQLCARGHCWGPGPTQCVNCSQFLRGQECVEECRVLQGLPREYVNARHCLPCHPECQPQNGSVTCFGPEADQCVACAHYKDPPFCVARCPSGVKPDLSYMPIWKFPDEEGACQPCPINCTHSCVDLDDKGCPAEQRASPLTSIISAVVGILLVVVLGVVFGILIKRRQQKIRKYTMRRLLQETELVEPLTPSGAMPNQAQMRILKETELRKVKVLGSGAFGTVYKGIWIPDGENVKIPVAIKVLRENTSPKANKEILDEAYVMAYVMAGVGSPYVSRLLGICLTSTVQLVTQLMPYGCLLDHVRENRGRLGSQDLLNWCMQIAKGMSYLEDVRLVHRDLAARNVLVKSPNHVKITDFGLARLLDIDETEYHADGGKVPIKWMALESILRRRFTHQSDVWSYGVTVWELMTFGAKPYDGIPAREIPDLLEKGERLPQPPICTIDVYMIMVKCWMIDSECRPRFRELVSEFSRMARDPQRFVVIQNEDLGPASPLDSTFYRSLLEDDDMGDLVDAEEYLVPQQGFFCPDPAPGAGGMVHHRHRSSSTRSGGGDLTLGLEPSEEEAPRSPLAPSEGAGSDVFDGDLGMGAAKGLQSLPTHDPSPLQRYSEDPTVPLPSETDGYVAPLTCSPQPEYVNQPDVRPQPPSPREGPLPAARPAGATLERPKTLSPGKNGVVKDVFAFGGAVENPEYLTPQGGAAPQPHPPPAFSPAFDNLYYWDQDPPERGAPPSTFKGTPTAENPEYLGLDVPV
Put plainly: Activity for inhibiting HER2 (Table B), HER2 YVMA. The note with it: read-out: HER2 YVMA, potency code (IC50). As for the experimental part: (§1) EC50 values were determined with the same application.

Assay [4] deals with T4, EGFR V3 (Homo sapiens, UniProt P00533, DELINS30-297G).
T4 construct: expressed in transfected cells; host or cells: BaF3 (murine pro-B), retroviral pMXs-IRES-Blasticidin
T4 sequence (P00533 with tags, fused parts or gaps DELINS30-297G): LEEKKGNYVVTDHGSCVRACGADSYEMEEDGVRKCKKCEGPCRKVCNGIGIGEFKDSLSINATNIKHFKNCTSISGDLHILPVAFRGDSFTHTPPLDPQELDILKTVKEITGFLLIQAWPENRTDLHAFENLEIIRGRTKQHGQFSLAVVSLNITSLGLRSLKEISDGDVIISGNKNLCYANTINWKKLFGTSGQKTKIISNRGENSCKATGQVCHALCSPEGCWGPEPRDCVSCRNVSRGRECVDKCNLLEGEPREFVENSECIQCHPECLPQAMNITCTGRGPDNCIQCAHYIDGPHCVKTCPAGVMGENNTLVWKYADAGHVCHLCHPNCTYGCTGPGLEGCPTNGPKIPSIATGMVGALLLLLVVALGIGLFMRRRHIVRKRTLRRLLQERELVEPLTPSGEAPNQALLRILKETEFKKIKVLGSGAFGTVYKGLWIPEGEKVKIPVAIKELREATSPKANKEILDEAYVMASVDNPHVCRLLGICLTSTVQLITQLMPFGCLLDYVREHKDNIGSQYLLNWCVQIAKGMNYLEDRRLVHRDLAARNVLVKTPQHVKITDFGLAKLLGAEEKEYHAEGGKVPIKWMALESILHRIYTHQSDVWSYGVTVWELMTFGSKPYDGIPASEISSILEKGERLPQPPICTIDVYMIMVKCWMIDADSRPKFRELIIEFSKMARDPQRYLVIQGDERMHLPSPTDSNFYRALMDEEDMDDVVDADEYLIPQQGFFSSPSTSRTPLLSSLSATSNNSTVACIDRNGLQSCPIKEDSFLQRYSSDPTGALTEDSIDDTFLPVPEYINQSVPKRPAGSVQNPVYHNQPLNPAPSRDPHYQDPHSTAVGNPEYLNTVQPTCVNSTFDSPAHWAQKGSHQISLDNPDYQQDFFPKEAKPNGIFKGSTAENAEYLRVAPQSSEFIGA
Description: Activity for inhibiting EGFR (Table A), EGFR V3 (EGFR-Viii). The following applies: read-out: EGFR V3, potency code (IC50).

For assay [5], the target named is T5, EGFR SVD (Homo sapiens, UniProt P00533, DUP768-770).
T5 construct: expressed in transfected cells; host or cells: BaF3 (murine pro-B), retroviral pMXs-IRES-Blasticidin
T5 sequence (P00533 with tags, fused parts or gaps DUP768-770): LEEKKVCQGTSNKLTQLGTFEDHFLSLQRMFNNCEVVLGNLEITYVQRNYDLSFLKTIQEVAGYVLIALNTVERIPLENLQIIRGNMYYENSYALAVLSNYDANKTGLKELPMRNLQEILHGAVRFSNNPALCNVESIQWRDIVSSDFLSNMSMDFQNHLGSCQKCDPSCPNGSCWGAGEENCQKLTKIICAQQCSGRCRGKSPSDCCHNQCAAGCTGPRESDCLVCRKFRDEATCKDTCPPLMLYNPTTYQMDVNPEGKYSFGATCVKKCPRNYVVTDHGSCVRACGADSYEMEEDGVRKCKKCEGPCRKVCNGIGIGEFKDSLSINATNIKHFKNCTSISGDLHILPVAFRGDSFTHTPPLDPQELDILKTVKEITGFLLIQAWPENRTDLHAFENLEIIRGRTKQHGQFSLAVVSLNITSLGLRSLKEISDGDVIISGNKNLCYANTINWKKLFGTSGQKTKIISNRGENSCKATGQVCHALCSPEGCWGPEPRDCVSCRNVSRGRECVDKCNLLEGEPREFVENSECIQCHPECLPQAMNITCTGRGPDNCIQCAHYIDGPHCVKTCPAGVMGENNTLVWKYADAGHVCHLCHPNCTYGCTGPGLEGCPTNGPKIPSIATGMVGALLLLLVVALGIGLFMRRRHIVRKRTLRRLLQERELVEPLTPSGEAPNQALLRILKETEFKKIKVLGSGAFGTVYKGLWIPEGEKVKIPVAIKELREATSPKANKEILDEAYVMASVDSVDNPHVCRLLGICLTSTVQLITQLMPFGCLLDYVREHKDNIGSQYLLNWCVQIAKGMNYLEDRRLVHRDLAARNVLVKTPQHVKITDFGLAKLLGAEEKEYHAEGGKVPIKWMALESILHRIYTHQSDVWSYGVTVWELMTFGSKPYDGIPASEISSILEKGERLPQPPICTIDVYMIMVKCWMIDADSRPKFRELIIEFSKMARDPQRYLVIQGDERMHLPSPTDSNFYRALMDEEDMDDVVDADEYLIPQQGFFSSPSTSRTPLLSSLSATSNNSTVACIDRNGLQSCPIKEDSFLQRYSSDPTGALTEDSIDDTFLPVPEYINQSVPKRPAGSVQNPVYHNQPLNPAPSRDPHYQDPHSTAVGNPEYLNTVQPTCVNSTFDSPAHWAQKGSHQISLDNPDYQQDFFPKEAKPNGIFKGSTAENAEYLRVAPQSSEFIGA
Put plainly: BaF3 cell proliferation assay, EGFR SVD (Table A). The note with it: potency code, 3 days, CellTiterGlo, read-out: EGFR SVD (Activity for Inhibiting EGFR). How it is done:
(§2) Retroviral Production: EGFR mutants were subcloned into pMXs-IRES-Blasticidin (RTV-016, Cell Biolabs, San Diego, Calif.). Retroviral expression vector retrovirus was produced by transient transfection of HEK 293T cells with the retroviral EGFR mutant expression vector pMXs-IRES-Blasticidin (RTV-016, Cell Biolabs), pCMV-Gag-Pol vector and pCMV-VSV-G-Envelope vector. Briefly, HEK 293T/17 cells were plated in 100 mm collagen coated plate (354450, Corning Life Sciences, Tewksbury, Mass.) (4×10^5 per plate) and incubated overnight. The next day, retroviral plasmids (3 μg of EGFR mutant, 1.0 μg of pCMV-Gag-Pol and 0.5 μg pCMV-VSV-G) were mixed in 500 μl of Optimem (31985, Life Technologies). The mixture was incubated at room temperature for 5 min and then added to Optimem containing transfection reagent Lipofectamine (11668, Invitrogen) and incubated for 20 minutes. Mixture was then added dropwise to HEK 293T cells. The next day the medium was replaced with fresh culture medium and retrovirus was harvested @ 24 and 48 hrs.
(§3) Generation of EGFR mutant stable cell lines: BaF3 cells (1.5E5 cells) were infected with 1 ml of viral supernatant supplemented with 8 μg/ml polybrene by centrifuging for 30 min at 1000 rpm. Cells were placed in a 37° C. incubator overnight. Cells were then spun for 5 minutes to pellet the cells. Supernatant was removed and cells re-infected a fresh 1 ml of viral supernatant supplemented with 8 μg/ml polybrene by centrifuging for 30 min at 1000 rpm. Cells were placed in 37° C. incubator overnight. […] After 48 hours cells were selected for retroviral infection in 10 μg/ml Blasticidin for one week. Blasticidin resistant populations were washed twice in phosphate buffered saline before plating in media lacking IL-3 to select for IL-3 independent growth.
as §1

In assay [6] the target is T6, EGFR NPH (Homo sapiens, UniProt P00533, DUP771-773).
T6 construct: expressed in transfected cells; host or cells: BaF3 (murine pro-B), retroviral pMXs-IRES-Blasticidin
Put plainly: Activity for inhibiting EGFR (Table A), EGFR NPH. The following applies: read-out: EGFR NPH, potency code (IC50).

Assay [7] has as its target T5, EGFR SVD. Description: Activity for inhibiting EGFR (Table A), EGFR SVD. The following applies: read-out: EGFR SVD, potency code (IC50).
Assay [8] addresses T6, EGFR NPH. Description: BaF3 cell proliferation assay, EGFR NPH (Table A). The note with it: potency code, 3 days, CellTiterGlo, read-out: EGFR NPH (Activity for Inhibiting EGFR). How it is done:
as §2, §3, §1

In assay [9] the target is T2, HER2 WT. Put plainly: Activity for inhibiting HER2 (Table B), HER2 WT.
The target in assay [10] is T7, HER2 S310F (Homo sapiens, UniProt P04626, S310F).
T7 construct: expressed in transfected cells; host or cells: BaF3 (murine pro-B)
Put plainly: Activity for inhibiting HER2 (Table B), HER2 S310F. The following applies: read-out: HER2 S310F, potency code (IC50). As for the experimental part:
as §1

The target of assay [11] is T1, EGFR WT. Description: BaF3 cell proliferation assay, EGFR WT (Table A). The note with it: potency code, 3 days, CellTiterGlo, read-out: EGFR WT (Activity for Inhibiting EGFR). The method, boiled down:
(§4)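 BaF3 + retroviral EGFR/HER2 mutant (two rounds of spinfection, 8 μg/ml polybrene); 10 μg/ml Blasticidin selection 1 wk; IL-3 withdrawn to select IL-3-independent growth. EC50 from cell proliferation.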

The target in assay [12] is T4, EGFR V3. Description: BaF3 cell proliferation assay, EGFR V3 (Table A). The following applies: potency code, 3 days, CellTiterGlo, read-out: EGFR V3 (Activity for Inhibiting EGFR). Put shortly: as §4
Assay [13] addresses T7, HER2 S310F. Description: BaF3 cell proliferation assay, HER2 S310F (Table B). The following applies: potency code, 3 days, CellTiterGlo, read-out: HER2 S310F (Activity for Inhibiting HER2).
The target of assay [14] is T3, HER2 YVMA. Put plainly: BaF3 cell proliferation assay, HER2 YVMA (Table B). The note with it: potency code, 3 days, CellTiterGlo, read-out: HER2 YVMA (Activity for Inhibiting HER2).
[15] abbreviates: Table B, read-out: HER2 WT, potency code (IC50).
[16] abbreviates: text lists of compounds, read-out: IC50 value for inhibiting wild-type HER2.

As to `C=CC(=O)Nc1cc2c(Nc3ccc(OCc4ccccn4)c(Cl)c3)ncnc2cc1OCCN1CCC1` [compound 33], the IC50 lay in the range of 300 to 500 nM in assay [1]; 5 to 10 nM in [2]; 100 to 200 nM in assay [3]; 20 to 30 nM in assay [4]; 50 to 100 nM in assay [5]; 50 to 100 nM in assay [6]. In addition, the IC50 is 50 to 100 nM in [7]; 50 to 100 nM in assay [8]; 5 to 10 nM in assay [9] (setting [15]); no more than 10 nM in [9] (setting [16]); 10 to 20 nM in assay [10]; 300 to 500 nM in assay [11]. In addition, the results for the IC50 in [12], in assay [13] and in assay [14] were 20 to 30 nM, 10 to 20 nM and 100 to 200 nM, respectively.

On to `C=CC(=O)Nc1cc2c(Nc3ccc(OCc4ccccn4)c(Cl)c3)ncnc2cc1OCCN1CC(OC)C1` [compound 35], for which the IC50 in assay [1] was 300 to 500 nM; in assay [2], less than 5 nM; in [3], 30 to 50 nM; in [4], 20 to 30 nM; in [5], 20 to 30 nM; in [6] it was 50 to 100 nM. The IC50 in [7] is 20 to 30 nM; in assay [8], 50 to 100 nM; in assay [9] (setting [15]) it was less than 5 nM; in assay [9] (setting [16]), no more than 5 nM; in assay [10], 10 to 20 nM; in [11], 300 to 500 nM. Moreover, the IC50 in [12] lay within 20 to 30 nM; in assay [13] it was 10 to 20 nM; in assay [14] it was 30 to 50 nM.

As to `C=CC(=O)Nc1cc2c(Nc3ccc(OCc4ccccn4)c(Cl)c3)ncnc2cc1OCCN1CC2CCC(C1)O2` [compound 36], the IC50 was greater than 1000 nM in assay [1]; 10 to 20 nM in assay [2]; 30 to 50 nM in [3]; 30 to 50 nM in assay [4]; 50 to 100 nM in assay [5]; 50 to 100 nM in [6]. For the same molecule, the IC50 is 50 to 100 nM in assay [7]; 50 to 100 nM in [8]; 10 to 20 nM in [9] (setting [15]); no more than 20 nM in [9] (setting [16]); 20 to 30 nM in [10]; greater than 1000 nM in [11]. The IC50 in [12] lay within 30 to 50 nM; in [13], 20 to 30 nM; in assay [14], 30 to 50 nM.

For `C=CC(=O)Nc1cc2c(Nc3ccc(OCc4ccccn4)c(Cl)c3)ncnc2cc1OCCN1CC2CC1CO2` (stereo not drawn) [compound 39], the IC50 was 500 to 1000 nM in assay [1]; 5 to 10 nM in assay [2]; 50 to 100 nM in assay [3]; 20 to 30 nM in [4]; 30 to 50 nM in assay [5]; 50 to 100 nM in assay [6]. The IC50 in [7] was 30 to 50 nM; in [8], 50 to 100 nM; in assay [9] (setting [15]) it was 5 to 10 nM; in assay [9] (setting [16]), no more than 10 nM; in assay [10], 10 to 20 nM; in [11], 500 to 1000 nM. The results for the IC50 in assay [12], in [13] and in assay [14] were 20 to 30 nM, 10 to 20 nM and 50 to 100 nM, respectively.
